{
  "source": "paper PMC6669827",
  "about": "(Toxins, 2019)",
  "origin": "cited, not measured here",
  "tested_on": "rat α9α10 nAChR",
  "details": "cited from earlier work",
  "data": [
    {"substance": "Vc1.1", "values": [
      {"measurement": "affinity for rat versus human α9/α10 (in words)", "result": "the affinity is higher for the rat subtypes"}
    ]}
  ]
}
